# According to patent publication US20220304957A1, “ANTI-CANCER COMPOSITIONS AND METHODS OF USE” (Board of Supervisors of Louisiana State University and …, priority 2019, published 2022):
# How the values were obtained:
# [1] = tested on: mitochondrial respiration and glycolysis in LN-229 human glioblastoma cells; assay: Metabolic parameters, Extracellular Flux Analyzer (OCR/ECAR); type: cell-based; conditions: 25 μM, LN229
# Procedure: Metabolic responses of LN-229 human glioblastoma cells were evaluated with Extracellular Flux Analyzer XF24 (Seahorse Biosciences, North Billerica, Mass.). Prior each assay the cells were plated at 4×10^4 cells/well in 24-well plates in growth supporting media. At the time of measurement, growth media were replaced with serum-free XF medium (Seahorse) in cartridges equipped with oxygen-sensitive and pH-sensitive fluorescent probes. The oxygen consumption rate (OCR; indicative of mitochondrial respiration) and acidification rate (ECAR; indicative of glycolysis) were evaluated after injecting the following metabolic toxins: oligomycin, FCCP; rotenone; and antimycin A. Immediate metabolic effects were determined by comparing OCR and ECAR values in cells pre-incubated with DMSO (vehicle), or with PP1 and FF, all used at 25 μM. A: Representative experiment in which real OCR (pmol/min) and ECAR (mpH/min) values are shown. Other relevant metabolic parameters calculated from this experiment include ATP production, Spare Respiratory Capacity, basal OCR levels and proton leak. B: Average OCR and ECAR data (% change over basal OCR and ECAR values) from three independent experiments repeated 5 times (n=15).
# Evaluation of metabolic parameters—Metabolic responses of human glioblastoma cells were evaluated with Extracellular Flux Analyzer XFe24 (Agilent Technologies). […]
# [2] = tested on: intracranial GL-261 glioblastoma tumors; assay: Intracranial GL-261-luc glioblastoma model, pathological evaluation of tumors; type: in vivo, C57BL/6 mice; conditions: 50 mg/kg/day oral, 14 days, large pre-existing tumors, n=3
# Procedure: Panel A: PP1 accumulation in different tissues following oral administration of PP1 (25 mg/kg). C57BL/6 mice were treated daily for 14 days, and the levels of PP1 in the blood, liver, spleen, kidney, heart, brain and in brain tumors, were evaluated by HPLC, as previously described. Data represent average values with standard deviation (n=3). Panel B: Body weight of C57BL/6 mice treated with PP1. Mice were treated with the PP1 at doses ranging from 25 to 75 mg/kg/day administered by oral gavage. Following 7 and 14 days of daily drug administration both control (DMSO-treated) and experimental (PP1-treated) mice were weighted. Data represent average values with standard deviation (at least three mice per group were included). In Panels A and B, tumor free and tumor bearing mice were included for the body weight measurement. Panels C, D and E: Intracranial growth of GL-261-Luc cells. […] Tumor size is expressed as radiance (photons/s/cm2/sr) and was quantified with the Living Image 4.1 software according to the manufacturer's recommendations (Xenogen). […]
# Animal studies—All described procedures involving experimental animals were performed in accordance to the IACUC protocol #3444 at LSUHSC, New Orleans. […] The resulting images were evaluated and luminescence measurements from equivalent regions of interest encompassing the entire skull were collected using Living Image 4.1 software (Xenogen). […]
# [3] = tested on: LN-229 human glioblastoma cells; conditions: in vitro; cited from earlier work
# [4] = tested on: GBM12 patient-derived human glioblastoma cells; assay: Cell death, trypan blue, GBM12; conditions: 5-50 μM, 96 h
# Procedure: The percentage of cell death was calculated at 96-hour time point for all experimental conditions.
smiles,measurement,setting,value
"CN(CCO)C(=O)C(C)(C)Oc1ccc(C(=O)c2ccc(Cl)cc2)cc1 [PP1, 2-[4-(4-chlorobenzoyl)phenoxy]-N-(2-hydroxyethyl)-N,2-dimethylpropanamide]",extracellular acidification rate (ECAR),[1],corresponding increases in ECAR
same,oxygen consumption rate (OCR),[1],dramatic decrease of OCR values
same,necrosis within the tumor mass,[2],multiple large areas of necrotic tissue within the tumor mass
same,concentration at which highly effective tumor cell death occurs,[3],10 µM
same,in vitro cytotoxicity,[4],high in vitro cytotoxicity
